The values that follow come from patent US4997843A, “2,4-disubstituted derivatives of tetrahydrofuran useful for the treatment of PAF mediated illnesses” (J Uriach & Cia S.A., priority 1987, dated 1991).

Test [1] deals with platelet aggregation induced by PAF. The test can be described thus: Test 1: inhibition of platelet aggregation induced by PAF in vitro (rabbit platelet rich plasma, Born nephelometric technique). Type of test: cell-based, male New Zealand albino rabbits. To be noted: PAF C18 16 nM final, read-out: IC50 (concentration of the drug needed to inhibit the platelet aggregation in a 50%). Here is the method:
TEST 1: INHIBITION OF PLATELET AGGREGATION INDUCED BY PAF
The platelet rich plasma (PRP) is prepared by blood centrifugation at 250 xg for 10 min. at 4° C. and it is diluted with platelet poor plasma (PPP) obtained by additional centrifugation at 300 xg for 10 min. The amount of platelets is adjusted to […].

In test [2] the test system is hypotension induced by PAF. The test can be described thus: Test 2: inhibition of the hypotensive effect induced by PAF in normotense rats. It is filed as in vivo, male Sprague Dawley rats. To be noted: anesthetized rats, compound via femoral vein 3 min before PAF (0.5 mg/Kg, i.v.); for ED50: Rattus norvegicus, iv, read-out: IC50 (inhibition of the hypotension induced by PAF). Here is the method: TEST 2--INHIBITION OF THE HYPOTENSIVE EFFECT INDUCED BY PAF IN NORMOTENSE RATS
Male Sprague Dawley rats, of 180-220 g of weight, anesthetized with sodium pentobarbital (50 mg/Kg, i.p. 1 mL/100 g) have been used. In order to measure the average arterial pressure a polyethylene catheter was introduced into the carotid artery. The arterial pressure was recorded with the help of a transducer connected with a R611 Beckman polygraph. The tested compounds were administrated through the femoral vein 3 min. before the injection of PAF (0.5 mg/Kg, i.v.).

The mark [3] stands for this setting: Oryctolagus cuniculus, Platelet.

SMILES strings stand for the structures. Where two headings read alike, the source gives them in different places.

For the molecule `CCCCCCCCCCCCCCCCOCC1COC(COC(=O)N(Cc2cccc[n+]2C)C(C)=O)C1` (racemic) [Compound 12, (±)-cis, trans-N-methyl-2-[N-acetyl-[[[(4-hexadecyloxymethyltetrahydrofuran-2-yl)methoxy]carbonyl]amino]methyl]pyridinium iodide], the IC50 in test [1] (setting [3]) turned out to be 100 nM. The ED50 in test [2] was found to be 0.23 mg/kg.

As to `CCCCCCCCCCCCCCCCOCC1COC(COC(=O)N(Cc2cccc[n+]2CC)C(C)=O)C1` (racemic) [Compound 13, (±)-cis, trans-N-ethyl-2-[N-acetyl-[[[(4-hexadecyloxymethyltetrahydrofuran-2-yl)methoxy]carbonyl]amino]methyl]pyridinium iodide], in test [1], the IC50 was determined as 22 nM. Further, the ED50 in test [2] amounted to 0.035 mg/kg.

On to `CCCCCCCCCCCCCCCCOCC1COC(COC(=O)N(Cc2cccc[n+]2CC)C(=O)OCC)C1` (racemic) [Compound 15, (±)-cis, trans-N-ethyl-[N-ethoxycarbonyl-[[[(4-hexadecyloxymethyltetrahydrofuran-2-yl)methoxy]carbonyl]amino]methyl]pyridinium iodide], for which the IC50 in test [1] (setting [3]) worked out at 48 nM. Also, the ED50 in test [2] stood at 0.035 mg/kg.

In the case of `CCCCCCCCCCCCCCCCCCOCC1COC(COC(=O)N(Cc2cccc[n+]2C)C(C)=O)C1` (racemic) [Compound 19, (±)-cis, trans-N-methyl-2-[N-acetyl-[[[(4-octadecyloxymethyltetrahydrofuran-2-yl)methoxy]carbonyl]amino]methyl]pyridinium iodide], in test [1] (setting [3]), the IC50 came out at 90 nM. In test [2], the ED50 was 0.14 mg/kg.

With `CCCCCCCCCCCCCCCCCCOCC1COC(COC(=O)N(Cc2cccc[n+]2CC)C(C)=O)C1` (racemic) [Compound 20, (±)-cis, trans-N-ethyl-2-[N-acetyl-[[[(4-octadecyloxymethyltetrahydrofuran-2yl)methoxy]carbonyl]amino]methyl]pyridinium iodide], the IC50 in test [1] (setting [3]) was found to be 34 nM. For the same molecule, in test [2], the ED50 was 0.035 mg/kg.

`CCCCCCCCCCCCCCOC[C@H]1CO[C@@H](COC(=O)N(Cc2cccc[n+]2CC)C(C)=O)C1.[Cl-]` (racemic) [Compound 25, (±)-cis, trans-N-ethyl-2-[N-acetyl-[[[(4-tetradecyloxymethyltetrahydrofuran-2-yl)methoxy]carbonyl]amino]-methyl]pyridinium chloride]: the IC50 in test [1] was determined as 95 nM. In addition, the “IC50 (inhibition of the hypotension induced by PAF)” value in test [2] was 0.081 mg/Kg, i.v.

As for `CCCCCCCCCCCCCCCNC(=O)OCC1COC(COC(=O)N(Cc2cccc[n+]2CC)C(C)=O)C1` (racemic) [Compound 49, (±)-cis, trans-N-ethyl-2-[N-acetyl-[[[(4-pentadecylaminocarbonyloxymethyltetrahydrofuran-2-yl)methoxy]-carbonyl]amino]methyl]pyridinium iodide], the IC50 in test [1] (setting [3]) worked out at 4.5 nM. Moreover, the ED50 in test [2] is 0.033 mg/kg.

For the molecule `CCCCCCCCCCCCCCCCCNC(=O)OCC1COC(COC(=O)N(Cc2cccc[n+]2CC)C(C)=O)C1` (racemic) [Compound 53, (±)-cis, trans-N-ethyl-2-[N-acetyl-[[[(4-heptadecylaminocarbonyloxymethyltetrahydrofuran-2-yl)methoxy]carbonyl]amino]methyl]pyridinium iodide], the IC50 in test [1] (setting [3]) is 27 nM. For the same molecule, the ED50 in test [2] came out at 0.042 mg/kg.

Turning to `CCCCCCCCCCCCCCCCOCC1COC(COC(=O)N(Cc2cccc[n+]2CC)C(C)=O)C1` (racemic) [Compound 58, (±)-cis, trans-N-ethyl-2-[N-acetyl-[[[(4-hexadecyloxymethyltetrahydrofuran-2-yl)methoxy]carbonyl]amino]methyl]pyridinium chloride], in test [1], the IC50 was 9 nM. In test [2], the “IC50 (inhibition of the hypotension induced by PAF)” value is recorded as 0.044 mg/Kg, i.v.

Consider `CCCCCCCCCCCCCCCCCCOCC1CC(COCCCCCCC[n+]2ccsc2)CO1` (racemic) [Compound 61, (±)-cis, trans-3-[7-[(2-octadecyloxymethyltetrahydrofuran-4-yl)methoxy]heptyl]thiazolium chloride], for which the IC50 in test [1] (setting [3]) was found to be 2000 nM. In addition, the ED50 in test [2] stood at 2.1 mg/kg.

On to `CCCCCCCCCCCCCCCCCCOCC1CC(COC(=O)CCCCC[n+]2ccsc2)CO1` (racemic) [Compound 64, (±)-cis, trans-3-[6-[(2-octadecyloxymethyltetrahydrofuran-4-yl)methoxy]6-oxohexyl]thiazolium 4-methylbenzenesulfonate], for which the IC50 in test [1] (setting [3]) is 1500 nM. Moreover, the ED50 in test [2] was found to be 1.1 mg/kg.

On to `CCCCCCCCCCCCCCCCCCOCC1CC(COC(=O)NCc2cccc[n+]2C)CO1` (racemic) [Compound 66, (±)-cis, trans-N-methyl-2-[[[[(2-octadecyloxymethyl-tetrahydrofuran-4-yl)methoxy]carbonyl]amino]methyl]pyridinium iodide], for which the IC50 in test [1] (setting [3]) came out at 1600 nM. Further, the ED50 in test [2] is 5 mg/kg.

Take `CCCCCCCCCCCCCCCCCCOCC1CC(COC(=O)N(Cc2cccc[n+]2C)C(C)=O)CO1` (racemic) [Compound 68, (±)-cis, trans-N-methyl-2-[N-acetyl-[[[(2-octadecyloxymethyltetrahydrofuran-4-yl)methoxy]carbonyl]amino]methyl]pyridinium iodide]: the IC50 in test [1] (setting [3]) was 140 nM. Moreover, the ED50 in test [2] turned out to be 0.11 mg/kg.

On to `CCCCCCCCCCCCCCC1COC(COCCCCCC[n+]2ccsc2)C1` (racemic) [Compound 70, (±)-cis, trans-3-[6-[(4-tetradecyltetrahydrofuran-2-yl)methoxy]hexyl]thiazolium 4-methylbenzenesulphonate], for which the IC50 in test [1] (setting [3]) was 2200 nM. For the same molecule, the ED50 in test [2] stood at 2.2 mg/kg.

As to `CCCCCCCCCCCCCCC1COC(COCCCCCC[n+]2cccc3ccccc32)C1` (racemic) [Compound 72, (±)-cis, trans-1-[6-[(4-tetradecyltetrahydrofuran-2-yl)methoxy]hexyl]quinolinium 4-methylbenzenesulfonate], the IC50 in test [1] (setting [3]) came to 3400 nM. For the same molecule, the ED50 in test [2] was 3.2 mg/kg.

On to `CCCCCCCCCCCCCCC1COC(COCCCCCCC[n+]2ccsc2)C1` (racemic) [Compound 82, (±)-cis, trans-3-[7-[(4-tetradecyltetrahydrofuran-2-yl)methoxy]heptyl]thiazolium 4-methylbenzenesulfonate], for which the IC50 in test [1] (setting [3]) turned out to be 1800 nM. In test [2], the ED50 is 1.5 mg/kg.

With `CCCCCCCCCCCCCCC1COC(COC(=O)N(Cc2cccc[n+]2C)C(C)=O)C1` (racemic) [Compound 109, (±)-cis,trans-N-methyl-2-[N-acetyl-[[[(4-tetradecyltetrahydrofuran-4-yl]methoxy]carbonyl]amino]methyl]pyridinium iodide], the IC50 in test [1] (setting [3]) was 240 nM. In addition, the ED50 in test [2] turned out to be 0.39 mg/kg.

On to `CCCCCCCCCCCCCCCCCCC1COC(COC(=O)N(Cc2cccc[n+]2CC)C(C)=O)C1` (racemic) [Compound 113], for which the IC50 in test [1] (setting [3]) is 200 nM. Also, in test [2], the ED50 turned out to be 0.2 mg/kg.
